# Measured values: patent publication US20030086869A1, “Methods and kits for diagnosing a pancreatic-based fat malabsorption disorder” (priority 2001, published 2003)
# Target: T1, pancreatic lipase (Homo sapiens, UniProt P16233)
# T1 construct: from tissue; host or cells: in vivo: endogenous pancreatic secretion in the small intestine of healthy adult subjects
# T1 sequence (P16233 17-465): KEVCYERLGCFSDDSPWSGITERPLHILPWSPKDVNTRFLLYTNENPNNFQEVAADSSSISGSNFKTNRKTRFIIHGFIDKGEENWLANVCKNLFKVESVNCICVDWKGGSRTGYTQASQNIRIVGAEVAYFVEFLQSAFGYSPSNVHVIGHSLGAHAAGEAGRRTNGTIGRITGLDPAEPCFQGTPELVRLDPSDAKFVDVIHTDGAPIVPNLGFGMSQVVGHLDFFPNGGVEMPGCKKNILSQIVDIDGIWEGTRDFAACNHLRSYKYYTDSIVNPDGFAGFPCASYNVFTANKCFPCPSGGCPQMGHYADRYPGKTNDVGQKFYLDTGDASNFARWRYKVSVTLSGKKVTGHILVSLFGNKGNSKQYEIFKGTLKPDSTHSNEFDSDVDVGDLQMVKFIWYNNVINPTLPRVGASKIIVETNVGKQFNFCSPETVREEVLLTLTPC
# T1 sequence (P04118 23-112 partner): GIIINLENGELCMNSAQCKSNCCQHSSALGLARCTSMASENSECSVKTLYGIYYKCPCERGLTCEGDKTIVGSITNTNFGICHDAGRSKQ
# Assay: MBT before and after Orlistat treatment in healthy adult subjects (pharmaceutically induced fat malabsorption)
# Format: in vivo
# Procedure: Analysis of the baseline and subsequent half-hourly or hourly serum samples taken for up to eight hours for the three doses of pentadecanoic acid (PA) and triglyceride containing heptadecanoic fatty acids (THA) are used to create time-dependent measured and normalized measured (see below) dosage response curves. Each concentration is analyzed independently for each subject and as a complete set for all subjects to determine the rates of absorption, distribution, and elimination for each of the measured fatty acids PA and heptadecanoic acid (HA) and the pancreatic enzyme activity for the hydrolysis of THA. The simplest model to determine a coefficient of fat absorption and an index of pancreatic enzyme activity is derived from the set of normal subjects and subsequently applied to subjects before and during therapy with a pancreatic enzyme inhibitor (Orlistat). Finally, this model is applied to subjects with CF receiving various levels of enzyme therapy to determine their coefficient of fat absorption and their index of enzymatic activity. In the simplest possible situation, the measured levels of both HA and PA are dose independent and reach an early and prolonged steady state in either whole plasma or in the chylomicron fraction. In that case, the normalized PA and HA can be compared against a CFA measured using the conventional standard 72 hour stool and diet collection method for the same patient and an appropriate conversion factor (which may be dependent upon the BMI) can be determined from the data. The ratio of the normalized HA to the normalized PA is defined as an index reflecting the pancreatic enzymatic activity profile during the absorption phase. The data is analyzed for any dependence of this index upon the patient's age or BMI. The comparisons before and after therapy with Orlistat are expected to reflect a decrease in this index of approximately 70%. […]
compound,measurement,setting,value
CCCCCCCCCCC[C@@H](C[C@@H]1OC(=O)[C@H]1CCCCCC)OC(=O)[C@H](CC(C)C)NC=O [Orlistat],expected decrease in index of pancreatic enzymatic activity (ratio of normalized HA to normalized PA) after therapy with Orlistat,"comparison before and after therapy with Orlistat, expected value of the model",approximately 70%
same,"expected estimated pancreatic enzyme activity in the presence of Orlistat, relative to normal (unsuppressed) activity","fraction of absorbed HA versus fraction of absorbed PA, expected value of the model",about 70%
same,serum response of PA prior to versus after receiving Orlistat,"healthy subjects, Orlistat 240 mg TID, PA 2.5 grams and THA 8.0 grams, FIG. 9",similar
